# Reference: patent publication US20230365592A1 (Agios Pharmaceuticals, Inc., priority 2022, published 2023)
# Molecular target: T1, human PAH with the R408W mutation (Homo sapiens, UniProt P00439, R408W)
# T1 construct: expressed in transfected cells
# T1 sequence (P00439 1-452 R408W): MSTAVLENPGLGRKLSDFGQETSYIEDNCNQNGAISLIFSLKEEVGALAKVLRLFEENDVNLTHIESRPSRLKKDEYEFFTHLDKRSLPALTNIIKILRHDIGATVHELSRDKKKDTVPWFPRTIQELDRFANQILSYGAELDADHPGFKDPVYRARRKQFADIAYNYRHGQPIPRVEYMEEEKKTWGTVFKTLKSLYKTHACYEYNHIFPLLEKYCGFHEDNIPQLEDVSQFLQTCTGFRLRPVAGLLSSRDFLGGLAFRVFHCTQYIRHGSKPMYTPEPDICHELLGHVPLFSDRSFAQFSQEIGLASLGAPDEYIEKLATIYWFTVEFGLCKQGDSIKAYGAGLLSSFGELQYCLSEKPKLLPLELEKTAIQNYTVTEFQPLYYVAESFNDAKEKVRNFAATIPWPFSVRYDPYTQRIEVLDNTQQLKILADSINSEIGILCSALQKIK
# Assay: Cell Based Phenylalanine Flux Assay;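 also: after compound treatment, cells received sepiapterin plus isotope-labelled Phenylalanine for 4 hours, then labelled Tyrosine in the medium was quantified, 10-point 2-fold dilution series run in duplicate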
# Conditions: A375 cells expressing R408W PAH; 24 hrs with compound, then 20 µM sepiapterin and 800 µM 13C9,15N-Phenylalanine for 4 hours; 13C-Tyrosine by LC-MS; average where tested multiple times; read-out: AC50
row,AC50 [nM],Compound
1,1000 to 5000,Cn1nc(C(C)(C)C)cc1C(=O)N1CCc2[nH]cnc2C1c1cc2ccccn2n1 (stereo not shown)
2,> 5000,Cc1cccc2cc(C3c4nc[nH]c4CCN3c3nnc(C4CCC4)o3)nn12 (stereo not shown)
3,1000 to 5000,FC1(F)CC(c2nnc(N3CCc4[nH]cnc4C3c3cc4c(Cl)cccn4n3)o2)C1 (stereo not shown)
4,> 5000,O=C(c1nnc(-c2cnn(C(F)(F)F)c2)o1)N1CCc2[nH]cnc2C1c1cc2cccc(F)n2n1 (stereo not shown)
5,1000 to 5000,Cc1nnc(C(=O)N2CCc3[nH]cnc3C2c2cc3cccc(C)n3n2)o1 (stereo not shown)

row,Compound,AC50 [nM]
1,"Cn1ncc(C(=O)N2CCc3[nH]cnc3[C@H]2c2cc3ccccn3n2)c1C(F)F (single isomer, unassigned)",1000 to 5000

# Same assay, conditions: A375 cells expressing human PAH R408W; 24 hrs compound incubation; 13C-Tyrosine by LC-MS; average where tested multiple times; read-out: AC50
row,AC50 [nM],Compound
1,500 to 1000,"Cc1c(-c2ncc(C(=O)N3CCc4[nH]cnc4[C@H]3c3cc4c(F)cccn4n3)o2)cnn1C [Example 2066, (S)-(2-(1,5-dimethyl-1H-pyrazol-4-yl)oxazol-5-yl)(4-(4-fluoropyrazolo[1,5-a]pyridin-2-yl)-1,4,6,7-tetrahydro-5H-imidazo[4,5-c]pyridin-5-yl)methanone]"
2,< 500,"Fc1cccnc1-c1nnc(N2CCc3[nH]cnc3[C@H]2c2cc3c(F)cccn3n2)o1 [Example 2289, (S)-2-(4-(4-fluoropyrazolo[1,5-a]pyridin-2-yl)-1,4,6,7-tetrahydro-5H-imidazo[4,5-c]pyridin-5-yl)-5-(3-fluoropyridin-2-yl)-1,3,4-oxadiazole]"
3,1000 to 5000,"O=C([C@@H]1CC1(F)F)N1CCc2[nH]cnc2[C@@H]1c1cc2c(F)cccn2n1 [Example 2031, ((S)-2,2-difluorocyclopropyl)((R)-4-(4-fluoropyrazolo[1,5-a]pyridin-2-yl)-1,4,6,7-tetrahydro-5H-imidazo[4,5-c]pyridin-5-yl)methanone]"
4,1000 to 5000,"CC(O)c1nc(Cl)c(C(=O)N2CCc3[nH]cnc3[C@H]2c2cc3ccccn3n2)o1 (single isomer, unassigned) [Example 2376]"

# Same assay, conditions: A375 cells expressing human R408W PAH; 24 hrs compound incubation; 13C-Tyrosine by LC-MS; average where tested multiple times; read-out: AC50
row,AC50 [nM],Compound
1,> 5000,"CN(C)c1ccc2c(C(=O)N3CCc4[nH]cnc4[C@@H]3c3cc4c(C(F)F)cccn4n3)cnn2c1 [Example 1771, (R)-(4-(4-(difluoromethyl)pyrazolo[1,5-a]pyridin-2-yl)-6,7-dihydro-1H-imidazo[4,5-c]pyridin-5(4H)-yl)(6-(dimethylamino)pyrazolo[1,5-a]pyridin-3-yl)methanone]"
2,500 to 1000,"COc1ccc2c(C(=O)N3CCc4[nH]cnc4[C@H]3c3cc4c(C(F)(F)F)cccn4n3)cnn2c1 [Example 1674, (S)-(6-methoxypyrazolo[1,5-a]pyridin-3-yl)(4-(4-(trifluoromethyl)pyrazolo[1,5-a]pyridin-2-yl)-6,7-dihydro-1H-imidazo[4,5-c]pyridin-5(4H)-yl)methanone]"
3,500 to 1000,"CC(C)c1nnc(C(=O)N2CCc3[nH]cnc3[C@H]2c2cc3cccc(C(F)F)n3n2)o1 [Example 1492, (S)-(4-(7-(difluoromethyl)pyrazolo[1,5-a]pyridin-2-yl)-6,7-dihydro-1H-imidazo[4,5-c]pyridin-5(4H)-yl)(5-isopropyl-1,3,4-oxadiazol-2-yl)methanone]"
4,> 5000,"Cc1cnn(C)c1-c1nnc(C(=O)N2CCc3[nH]cnc3[C@@H]2c2cc3cccc(C(F)F)n3n2)o1 [Example 1585, (R)-(4-(7-(difluoromethyl)pyrazolo[1,5-a]pyridin-2-yl)-6,7-dihydro-1H-imidazo[4,5-c]pyridin-5(4H)-yl)(5-(1,4-dimethyl-1H-pyrazol-5-yl)-1,3,4-oxadiazol-2-yl)methanone]"

# More lines, now with the values behind:
row,Compound,AC50 [nM]
1,"Cc1cccc2cc([C@@H]3c4nc[nH]c4CCN3C(=O)c3nnc(C(C)(C)F)o3)nn12 [Example 938, (S)-(5-(2-fluoropropan-2-yl)-1,3,4-oxadiazol-2-yl)(4-(7-methylpyrazolo[1,5-a]pyridin-2-yl)-6,7-dihydro-1H-imidazo[4,5-c]pyridin-5(4H)-yl)methanone]",< 500
2,"Cc1nnc(C(=O)N2CCc3[nH]cnc3[C@@H]2c2cc3c(C(F)(F)F)cccn3n2)o1 [Example 945, (R)-(5-methyl-1,3,4-oxadiazol-2-yl)(4-(4-(trifluoromethyl)pyrazolo[1,5-a]pyridin-2-yl)-6,7-dihydro-1H-imidazo[4,5-c]pyridin-5(4H)-yl)methanone]",> 5000
3,"O=C(c1nnc(-c2cccnc2)o1)N1CCc2[nH]cnc2[C@@H]1c1cc2c(Cl)cccn2n1 [Example 1293, (R)-(4-(4-chloropyrazolo[1,5-a]pyridin-2-yl)-6,7-dihydro-1H-imidazo[4,5-c]pyridin-5(4H)-yl)(5-(pyridin-3-yl)-1,3,4-oxadiazol-2-yl)methanone]",1000 to 5000
4,"CC(C)(O)c1nc(C(F)F)c(C(=O)N2CCc3[nH]cnc3[C@@H]2c2cc3c(F)cccn3n2)o1 [Example 715, (R)-(4-(difluoromethyl)-2-(2-hydroxypropan-2-yl)oxazol-5-yl)(4-(4-fluoropyrazolo[1,5-a]pyridin-2-yl)-6,7-dihydro-1H-imidazo[4,5-c]pyridin-5(4H)-yl)methanone]",> 5000
5,"Cc1nn(C)cc1-c1nnc(C(=O)N2CCc3[nH]cnc3[C@@H]2c2cc3c(F)cccn3n2)o1 [Example 847, (R)-(5-(1,3-dimethyl-1H-pyrazol-4-yl)-1,3,4-oxadiazol-2-yl)(4-(4-fluoropyrazolo[1,5-a]pyridin-2-yl)-6,7-dihydro-1H-imidazo[4,5-c]pyridin-5(4H)-yl)methanone]",> 5000
6,"O=C(c1nnc(-c2cnn(C(F)F)c2)o1)N1CCc2[nH]cnc2[C@H]1c1cc2c(Cl)cccn2n1 [Example 1134, (S)-(4-(4-chloropyrazolo[1,5-a]pyridin-2-yl)-6,7-dihydro-1H-imidazo[4,5-c]pyridin-5(4H)-yl)(5-(1-(difluoromethyl)-1H-pyrazol-4-yl)-1,3,4-oxadiazol-2-yl)methanone]",< 500
7,"Cc1cccc(-c2nnc(C(=O)N3CCc4[nH]cnc4[C@H]3c3cc4c(F)cccn4n3)o2)n1 [Example 1470, (S)-(4-(4-fluoropyrazolo[1,5-a]pyridin-2-yl)-6,7-dihydro-1H-imidazo[4,5-c]pyridin-5(4H)-yl)(5-(6-methylpyridin-2-yl)-1,3,4-oxadiazol-2-yl)methanone]",< 500
8,"N#Cc1ncoc1C(=O)N1CCc2[nH]cnc2[C@@H]1c1cc2c(Cl)cccn2n1 [Example 687, (R)-5-(4-(4-chloropyrazolo[1,5-a]pyridin-2-yl)-4,5,6,7-tetrahydro-1H-imidazo[4,5-c]pyridine-5-carbonyl)oxazole-4-carbonitrile]",1000 to 5000
9,"Cn1cncc1-c1nc(C(F)F)c(C(=O)N2CCc3[nH]cnc3[C@H]2c2cc3c(F)cccn3n2)o1 [Example 889, (S)-(4-(difluoromethyl)-2-(1-methyl-1H-imidazol-5-yl)oxazol-5-yl)(4-(4-fluoropyrazolo[1,5-a]pyridin-2-yl)-6,7-dihydro-1H-imidazo[4,5-c]pyridin-5(4H)-yl)methanone]",500 to 1000
10,"Cc1cccn2nc([C@@H]3c4nc[nH]c4CCN3C(=O)c3nnc(-c4cnn(C)c4C)o3)cc12 [Example 988, (S)-(5-(1,5-dimethyl-1H-pyrazol-4-yl)-1,3,4-oxadiazol-2-yl)(4-(4-methylpyrazolo[1,5-a]pyridin-2-yl)-6,7-dihydro-1H-imidazo[4,5-c)pyridin-5(4H)-yl)methanone]",< 500
11,"Cc1cccn2nc([C@H]3c4nc[nH]c4CCN3C(=O)c3nnc(-c4cc(C)n(C)n4)o3)cc12 [Example 855, (R)-(5-(1,5-dimethyl-1H-pyrazol-3-yl)-1,3,4-oxadiazol-2-yl)(4-(4-methylpyrazolo[1,5-a]pyridin-2-yl)-6,7-dihydro-1H-imidazo[4,5-c]pyridin-5(4H)-yl)methanone]",> 5000
